Measured values taken from patent US6596258B1, “Method of obtaining extracellular and intracellular pH images and spectra by magnetic resonance using extrinsic indicators containing 1H or 19F” (Universidad Nacional de Educacion a Distancia, priority 1997, dated 2003).

Experiments:
[1] = test system: NIH 3T3 mouse fibroblasts; test: Toxicity in cell culture (cell survival after 72 h incubation); conditions: for Cell survival (average optical density, an index of cell number): NIH 3T3, mean±SD of four determinations
Experimental: NIH 3T3 mouse fibroblasts were grown in Dulbecco modified essential medium (DMEM) supplemented with 10% fetal calf serum (FCS, Hyclone, Logan, Utah, USA).
Results represent the mean±SD of four determinations from different culture dishes at each concentration.

[2] = Plasma kinetics after intravenous (jugular vein) injection, 1H NMR of plasma; conditions: male Wistar rats
[3] = Kinetics of tissue uptake after intravenous injection, 1H NMR of perchloric acid organ extracts; conditions: Wistar rats, 1 mmol intravenous
Male Swiss albino mice = test: Toxicity (LD50) in intact animals, intraperitoneal, method of Miller and Tainter; conditions: doses as high as 3 g/Kg of body weight
Description: At least seven different doses, each one of then administered to six mice, which were kept in different cages, were used for each compound.

[4] = injection into right jugular vein

| SMILES | Cell survival (average optical density, an index of cell number) ([1]; 1.0 mM compound) | Cell survival (average optical density, an index of cell number) ([1]; 5.0 mM compound) | Cell survival (average optical density, an index of cell number) ([1]; 10.0 mM compound) | Cell survival (average optical density, an index of cell number) ([1]; 20.0 mM compound) | Toxicity in cell culture (in words) ([1]; NIH 3T3, 0 to 20 mM) | Clearance from plasma, t1/2 [2, 4] [min] | Highest concentration in plasma [2, 4] [mM] | Time after injection at which highest plasma concentration was attained [2, 4] [min] | Signs of toxicity during the pharmacokinetic experiment ([2]; intravenous injection) | Concentration reached in brain [3] | Concentration reached in heart [3] | Concentration reached in kidney [3] | Concentration reached in liver [3] | Concentration reached in skeletal muscle [3] | Time of peak concentration in kidney [3] [min] | Time of peak concentration in skeletal muscle [3] [min] | Toxicity in intact animals (in words) (Male Swiss albino mice) |
| --- | --- | --- | --- | --- | --- | --- | --- | --- | --- | --- | --- | --- | --- | --- | --- | --- | --- |
| CCOC(=O)CC(C(=O)O)n1ccnc1 (racemic) [Compound 9, (±)-3-(etoxycarbonyl)-2-imidazol-1-ilpropionic acid] | 1.68 ± 0.04 | 1.38 ± 0.06 | 1.52 ± 0.13 | 1.54 ± 0.09 | did not exhibit any toxicity | 6 | 6.6 | 1 | No signs of toxicity were detected | absent | < 0.5 μmol/g of body weight | 13.9 μmol/g of body weight | < 0.2 μmol/g of body weight | 5.8 μmol/g of body weight | 10 | 20 | did not exhibit any toxicity |
| c1c[nH]cn1 [Compound 1, Imidazol] | – | – | – | – | – | – | – | – | – | – | – | 12.1 μmol/g of body weight | – | 5.3 μmol/g of body weight | 30 | 10 to 20 | – |
